The values that follow come from ChEMBL document CHEMBL1201862, “PubChem BioAssay data set” (2004).

SMILES strings stand for the structures.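 These data come from cells grown in 96-well plates and exposed to compound for 48 hours at five concentrations. GI50 marks 50% less growth.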 Active and inactive are the calls of the source. Rule as the data show it: active = GI50 up to about 1.1 µM and inactive = higher.

Among the test systems are A498; HOP-62; HT-29; IGROV-1; K562; KM12; LXFL 529; MDA-N; NCI-H460; NCI-H522; OVCAR-5; OVCAR-8; PC-3; RPMI-8226; RXF 393; SK-MEL-2; SK-OV-3; SR; UACC-257; UO-31.
What all share (assay): NCI tumour cell line growth inhibition, 48 h

Regarding `CCCCOC(=O)N[C@H]1CCc2cc(OC)c(OC)c(OC)c2-c2ccc(SC)c(=O)cc21`, the GI50 in the assay with A498 is < 0.01 µM (active); in the assay with HOP-62, < 0.01 µM (active); in the assay with HT-29 it was < 0.01 µM (active); in the assay with IGROV-1, 0.0101 µM (active); in the assay with K562, < 0.0369 µM (active); in the assay with KM12, < 0.01 µM (active). In addition, the GI50 in the assay with LXFL 529 is < 0.01 µM (active); in the assay on MDA-N it was < 0.01 µM (active); in the assay with NCI-H460, < 0.01 µM (active); with NCI-H522 it was < 0.01 µM (active); in the assay on OVCAR-5 it was 0.147 µM (active); with OVCAR-8, < 0.01 µM (active). Also, the GI50 in the assay on PC-3 was 0.0127 µM (active); in the assay on RPMI-8226, < 0.01 µM (active); with RXF 393, < 0.031 µM (active); in the assay on SK-MEL-2, < 0.01 µM (active); in the assay with SK-OV-3, 0.0303 µM (active); in the assay on SR it was < 0.0568 µM (active). Also, the results for the GI50 with UACC-257 and in the assay on UO-31 were < 0.0286 µM (active) and < 0.0231 µM (active), respectively.

Consider `Cc1c(/N=C\c2ccc(N(CCC#N)CCC#N)cc2)c(=O)n(-c2ccccc2)n1C`, for which the GI50 in the assay with A498 was 69.2 µM (inactive); in the assay with HOP-62, 31.5 µM (inactive); in the assay with HT-29 it was > 100 µM (inactive); with IGROV-1, > 93.5 µM (inactive); in the assay with K562 it was > 100 µM (inactive); in the assay with KM12, > 100 µM (inactive). Moreover, the GI50 in the assay on LXFL 529, in the assay with MDA-N, in the assay with NCI-H460, in the assay with NCI-H522, in the assay with OVCAR-5 and in the assay with OVCAR-8 was > 100 µM (inactive) throughout. Further, the GI50 with PC-3 is > 100 µM (inactive); in the assay on RPMI-8226 it was > 100 µM (inactive); with RXF 393 it was 24 µM (inactive); in the assay on SK-MEL-2 it was > 96.6 µM (inactive); in the assay on SK-OV-3 it was > 100 µM (inactive); in the assay with SR, > 100 µM (inactive). Besides, the GI50 in the assay on UACC-257 and in the assay on UO-31 was > 100 µM (inactive) throughout.

Take `S=c1sc2c(S)nc(S)nc2n1-c1ccccc1`: the GI50 is 41 µM (inactive) in the assay on A498; > 100 µM (inactive) in the assay with HOP-62; > 100 µM (inactive) in the assay on HT-29; > 100 µM (inactive) in the assay with IGROV-1; > 100 µM (inactive) in the assay on K562; 54.5 µM (inactive) in the assay on KM12. The GI50 in the assay on LXFL 529 was > 100 µM (inactive); in the assay on NCI-H460, > 100 µM (inactive); with NCI-H522, 41.5 µM (inactive); in the assay on OVCAR-5, > 100 µM (inactive); with OVCAR-8, > 100 µM (inactive); with RPMI-8226 it was > 100 µM (inactive). The GI50 with RXF 393, in the assay with SK-MEL-2, in the assay with SK-OV-3, in the assay with SR, in the assay on UACC-257 and in the assay on UO-31 was > 100 µM (inactive) throughout.

`COC(=O)[C@@]12OC[C@]34C([C@@H](O)C1O)[C@@]1(C)CC(=O)C(OC(=O)/C=C(/c5ccccc5)C(F)(F)F)=C(C)C1C[C@H]3OC(=O)[C@H](O)[C@H]42` (stereo partly specified): the GI50 was 0.52 µM (active) with A498; 12.4 µM (inactive) in the assay with HOP-62; 6.76 µM (inactive) with HT-29; 3.9 µM (inactive) with IGROV-1; 9.4 µM (inactive) in the assay on K562; 14.4 µM (inactive) with KM12. Moreover, the GI50 in the assay with LXFL 529 was 7.35 µM (inactive); with NCI-H460 it was 2.43 µM (inactive); in the assay with NCI-H522, 6.35 µM (inactive); in the assay with OVCAR-5, 21.8 µM (inactive); in the assay on OVCAR-8 it was 12.1 µM (inactive); in the assay on RPMI-8226, 2.06 µM (inactive). The GI50 is 16.9 µM (inactive) with RXF 393; 7.96 µM (inactive) in the assay with SK-MEL-2; 7.89 µM (inactive) in the assay on SK-OV-3; 3.29 µM (inactive) in the assay on SR; 8.73 µM (inactive) in the assay on UACC-257; 35.7 µM (inactive) in the assay on UO-31.

Take `C=C(C)[C@H]1Cc2c(ccc3c2O[C@@H]2COc4cc(OC)c(OC)cc4[C@@H]2C3=O)O1` [ROTENONE]: the GI50 with A498 is 0.335 µM (active); in the assay on HOP-62, 0.168 µM (active); in the assay on HT-29, 0.127 µM (active); in the assay with IGROV-1, 0.126 µM (active); with K562 it was 0.0929 µM (active); with KM12, 0.0897 µM (active). Also, the GI50 with LXFL 529 was 0.0368 µM (active); in the assay with MDA-N it was 0.0423 µM (active); with NCI-H460, 0.0891 µM (active); with NCI-H522, 0.0247 µM (active); with OVCAR-5, 2.55 µM (inactive); with OVCAR-8, 0.257 µM (active). Further, the GI50 is 0.155 µM (active) with PC-3; 0.0575 µM (active) in the assay with RPMI-8226; 0.0836 µM (active) with RXF 393; 0.171 µM (active) with SK-MEL-2; 0.206 µM (active) with SK-OV-3; 0.617 µM (active) with SR. The values for the GI50 in the assay with UACC-257 and in the assay on UO-31 were 0.0516 µM (active) and 0.131 µM (active), respectively.
